Results published in PMC5797111, “Molecular and Functional Characterization of pheromone binding protein 1 from the Oriental Fruit Moth, Grapholita molesta (Busck)” (Scientific Reports, 2018).

Key:
male G. molesta = tested on: male G. molesta; design: method as in earlier work; conditions: added to blend of (Z)-8-dodecenyl acetate (85.5%), (E)-8-dodecenyl acetate (5.5%) and (Z)-8-dodecenyl alcohol (9%); cited from earlier work
CpomPBP2 = tested on: CpomPBP2; design: method as in PMID 27491022, PMID 27709920; conditions: cited from earlier work
CpomPBP1 = tested on: CpomPBP1; design: method as in PMID 27491022, PMID 27709920; conditions: cited from earlier work
GmolPBP1 [1] = biological target: T1, GmolPBP1 (Grapholita molesta, UniProt A0A2R4SBD6); assay: Fluorescence competitive binding assay with 1-NPN as probe; conditions: for IC50 / Ki: 1-NPN and GmolPBP1 both at 2 μM; for IC50 / binding affinity to GmolPBP1 (in words): ligands 1 to 10 μM; for IC50: read-out: IC50 (ligand concentration displacing half of the initial fluorescence intensity of the GmolPBP1/1-NPN complex); for Ki: calculated from the IC50 value, read-out: Ki (dissociation constant); for binding affinity to GmolPBP1 (in words): displacement of 1-NPN
T1 sequence (A0A2R4SBD6 entry or part of it): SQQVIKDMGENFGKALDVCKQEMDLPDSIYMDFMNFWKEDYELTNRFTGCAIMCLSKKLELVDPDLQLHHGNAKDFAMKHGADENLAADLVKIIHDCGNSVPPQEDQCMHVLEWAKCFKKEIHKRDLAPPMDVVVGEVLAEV
Description: (§1) To understand the binding properties of the GmolPBP1 with four sex pheromone components of G. molesta and the Codlemone of C. pomonella. We expressed and purified the protein (Figure S1). Then, a competitive binding assay was performed with 1-NPN as the fluorescence probe. The probe was excited at 337 nm and emission spectra were recorded between 370 and 500 nm. The fluorescent intensity of the 1-NPN alone was fairly low, then a strong blue shift, and peaked at about 410 nm with the presence of GmolPBP1. The intensity of this peak was used to determine the dissociation constant of the GmolPBP1/1-NPN complex.
The displacement of 1-NPN by different sex pheromone components was measured for GmolPBP1 in the competitive binding assy. These ligands included the four sex pheromone components of G. molesta (Z)-8-dodecenyl acetate, (E)-8-dodecenyl acetate, (Z)-8-dodecenyl alcohol and 1-dodecanol as well as the C. pomonella Codlemone. […] The dissociation constants for these three compounds are 1.73 ± 0.31, 2.25 ± 0.63 and 1.88 ± 0.25 μM, respectively.
Emission fluorescence spectra were performed on an F-4600 fluorescence Spectrophotometer (Hitachi, Japan) in a 1 cm light path quartz cuvette with 10 nm slit width for both excitation and emission. The excitation wavelength was set at 337 nm and emission spectra were recorded between 370 and 500 nm. The fluorescent probe N-phenyl-1-naphthylamine (1-NPN) and the ligands used in the binding assay were dissolved in spectrophotometric-grade methanol to yield a 1-mM stock solution (for the sources of these chemicals, see Table S1). To determine the dissociation constant between 1-NPN and GmolPBP1, 2 μM GmolPBP1 dissolved in 20 mM Tris-HCl pH 7.4 was titrated with 1 mM 1-NPN to final concentrations of 2–16 μM. The fluorescence intensities at the maximum fluorescence emission between 370 and 500 nm were plotted against the concentrations of added 1-NPN. The curve was linearized using Scatchard plots. The concentrations of bound 1-NPN were evaluated from the values of fluorescence intensity assuming that the protein was 100% active with a stoichiometry of 1:1 (protein: ligand) at saturation. The affinities of the selected ligands were measured by competitive binding assays by adding the ligands from 1 to 10 μM into the 1-NPN/GmolPBP1 solution (both at 2 μM). The emission spectra were recorded between 370 and 500 nm and the maximum fluorescence intensities were plotted against the ligand concentrations after normalization relative to the intensity at zero ligand. For these competitor ligands, the dissociation constants were computed from the corresponding IC50 values using the quation: Ki = [IC50]/(1 + [1-NPN]/K1-NPN), where [1-NPN] is the free concentration of 1-NPN and K1-NPN is the dissociation constant of the protein complex/1-NPN. All values reported were collected in three independent measurements.

GmolPBP2 = biological target: GmolPBP2; design: method as in doi:10.1016/S2095-3119(13)60686-3; conditions: cited from earlier work
GmolPBP1 [2] = biological target: T1, GmolPBP1; assay: 1-NPN fluorescence binding (titration, Scatchard plot); conditions: 2 μM GmolPBP1 in 20 mM Tris-HCl pH 7.4, 1-NPN 2–16 μM; read-out: dissociation constant of the GmolPBP1/1-NPN complex
Description: as §1
Emission fluorescence spectra were performed on an F-4600 fluorescence Spectrophotometer (Hitachi, Japan) in a 1 cm light path quartz cuvette with 10 nm slit width for both excitation and emission. The excitation wavelength was set at 337 nm and emission spectra were recorded between 370 and 500 nm. […] The fluorescence intensities at the maximum fluorescence emission between 370 and 500 nm were plotted against the concentrations of added 1-NPN. […] The concentrations of bound 1-NPN were evaluated from the values of fluorescence intensity assuming that the protein was 100% active with a stoichiometry of 1:1 (protein: ligand) at saturation. […]

IC50 (GmolPBP1 [1]) [µM] | Ki (GmolPBP1 [1]) [µM] | binding affinity to GmolPBP1 (in words) (GmolPBP1 [1]) | SMILES | increase of trap catches of male G. molesta over the G. molesta blend alone (male G. molesta) | affinity to CpomPBP2 (in words) (CpomPBP2) | affinity to CpomPBP1 (in words) (CpomPBP1) | Ki (GmolPBP2) [µM] | Kd (GmolPBP1 [2]) [µM]
2.66 ± 0.35 | 1.88 ± 0.25 | strong affinity | C/C=C/C=C/CCCCCCCO [Codlemone, E, E-8, 10-Dodecadienol] | two- to three-fold | poor affinity | strong affinity |  | 
2.46 ± 0.43 | 1.73 ± 0.31 | strong affinity | CCC/C=C\CCCCCCCO [(Z)-8-dodecenyl alcohol] |  |  |  |  | 
 |  |  | c1ccc(Nc2cccc3ccccc23)cc1 [1-NPN, N-phenyl-1-naphthylamine] |  |  |  |  | 2.41 ± 0.25
3.2 ± 0.89 | 2.25 ± 0.63 | strong affinity | CCCCCCCCCCCCO [1-dodecanol] |  |  |  |  | 

SMILES | IC50 (GmolPBP1 [1]) [µM] | Ki (GmolPBP1 [1]) [µM] | binding affinity to GmolPBP1 (in words) (GmolPBP1 [1]) | increase of trap catches of male G. molesta over the G. molesta blend alone (male G. molesta) | affinity to CpomPBP2 (in words) (CpomPBP2) | affinity to CpomPBP1 (in words) (CpomPBP1) | Ki (GmolPBP2) [µM] | Kd (GmolPBP1 [2]) [µM]
CCC/C=C/CCCCCCCOC(C)=O [(E)-8-dodecenyl acetate] |  |  | could not displace half of the total 1-NPN |  |  |  | 1.1 ± 0.05 | 
CCC/C=C\CCCCCCCOC(C)=O [(Z)-8-dodecenyl acetate] |  |  | could not displace half of the total 1-NPN |  |  |  | 1.09 ± 0.04 | 
